Reference: patent US10294272B2, “Peptides with antagonistic activities against natural CXCR4” (Pharis Biotec GmbH, priority 2013, dated 2019)
No end group written: not given here.

Columns and labels:
[1] = molecular target: T1, CXCR4 (Homo sapiens, UniProt P61073); experiment: Competition with CXCL12 binding to CXCR4 (real-time fluorescence, eGFP-CXCR4 cells)
T1 construct: expressed in transfected cells
Method: Anti-human CXCR4 (clone 12G5, IgG2a) or anti-human CXCR7 (clone 9C4) monoclonal antibodies (mAbs) were purchased from R&D Systems (Minneapolis, Minn.). […] The human chemokines CXCL12 and CXCL12-TexasRed were synthesized as described (Valenzuela-Fernandez, et al. 2001). The human chemokine CXCL11 was purchased from Clinisciences SAS (France).
Experiments were performed using cells stably expressing eGFP-CXCR4, suspended in HEPES-bovine serum albumin buffer (10 mM HEPES, 137.5 mM NaCl, 1.25 mM MgCl2, 1.25 mM CaCl2, 6 mM KCl, 10 mM glucose, 0.4 mM NaH2PO4, 0.1% bovine serum albumin (w/v), pH 7.4) (typically at 10^6 cells/mL). Time-based recordings of the fluorescence emitted at 510 nm (excitation at 470 nm) were performed at 21° C. using a spectrofluorimeter and sampled every 0.3 s. Fluorescence binding measurements were initiated by adding at 30 s 100 nM of CXCL12-TR to the 1 mL cell suspension. For competition experiments, EGFP-CXCR4 expressing cells were preincubated for 10 min in the absence or presence of various concentrations of unlabelled drugs. Then, CXCL12-TR (100 nM) was added and fluorescence was recorded until equilibrium was reached (300 s). Data were analyzed using Kaleidagraph 3.08 software (Synergy Software, Reading, Pa., USA).

[2] = molecular target: T2, CXCR4 (Mus musculus, UniProt P70658); experiment: Asthma mouse model (OVA challenge); assay type: in vivo; conditions: mice, i.p., allergen challenge with OVA
T2 construct: from tissue; host or cells: live mice (C57Bl/6J for mobilization)
T2 sequence (P70658 whole entry): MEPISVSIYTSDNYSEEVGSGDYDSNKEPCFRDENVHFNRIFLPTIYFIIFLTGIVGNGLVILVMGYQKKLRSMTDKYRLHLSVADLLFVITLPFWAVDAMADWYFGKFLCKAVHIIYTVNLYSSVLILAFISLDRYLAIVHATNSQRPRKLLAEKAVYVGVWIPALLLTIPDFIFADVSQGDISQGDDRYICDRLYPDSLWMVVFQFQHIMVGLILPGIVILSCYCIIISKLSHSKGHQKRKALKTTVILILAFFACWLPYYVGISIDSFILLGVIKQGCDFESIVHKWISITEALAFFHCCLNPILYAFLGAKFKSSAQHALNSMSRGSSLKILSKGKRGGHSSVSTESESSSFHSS
Method: Mice were sensitized by intraperitoneal (i.p.) injection on days 0, 1 and 2 of 50 μg ovalbumin (OVA, Sigma-Aldrich, A5503) adsorbed on 2 mg aluminium hydroxide (Sigma-Aldrich, 23918-6) in saline. Mice were challenged by intranasal (i.n.) instillation of 10 μg OVA in 25 μl saline (12.5 μl/nostril) or saline alone for control mice on days 5, 6 and 7 under anesthesia (50 mg/kg ketamine and 3.3 mg/kg xylazine, i.p.). the peptide of SEQ ID NO 16 or ALB409-423 in saline were administered i.p. (16 μmol/kg) two hours before each OVA challenge. Bronchoalveolar lavage (BAL) and differential cell counts were performed 24 h after the last OVA challenge as previously reported in (Rebber et al., 2012).

[3] = test system: X4 HIV-1 strains
Method: (§1) Antiviral screening was performed using the X4 HIV-1 NL4-3 molecular clone.
(§2) HIV-1, HIV-2 and SIV molecular clones differing in coreceptor tropism were generated by transient transfection of 293T cells with proviral DNA by the calcium phosphate method (CalPhos™ Mammalian Transfection Kit, Clon-tech). After overnight incubation, the transfection mixture was replaced by DMEM medium supplemented with 10% FCS, and virus stocks were harvested 48 hrs post-transfection. Subsequently, the culture supernatant was centrifuged for 5 min at 3000 rpm to remove cell debris. The resulting virus stock was quantified by p24 (HIV) or p27 (SIV) antigen ELISA. Virus stocks were either used immediately or stored in aliquots at −80° C.
(§3) TZM-bl reporter cells containing the LacZ reporter gene under the control of the HIV-1 promoter were seeded in 96-well F-bottom microtiter plates (Greiner Bio-One). On the following day, the cells were preincubated with various dilutions of the peptide of SEQ ID NO 16 or its derivatives for 1 hour and subsequently infected with HIV-1, HIV-2, and SIV. Infection rates were determined after 2 days using the one-step Tropix Gal-Screen Kit, as recommended by the manufacturer.

[4] = test system: X4 tropic HIV-1 NL4-3; conditions: blocking X4 tropic HIV-1 NL4-3 infection
Method: as §1, §2, §3

T1 sequence (P61073 whole entry): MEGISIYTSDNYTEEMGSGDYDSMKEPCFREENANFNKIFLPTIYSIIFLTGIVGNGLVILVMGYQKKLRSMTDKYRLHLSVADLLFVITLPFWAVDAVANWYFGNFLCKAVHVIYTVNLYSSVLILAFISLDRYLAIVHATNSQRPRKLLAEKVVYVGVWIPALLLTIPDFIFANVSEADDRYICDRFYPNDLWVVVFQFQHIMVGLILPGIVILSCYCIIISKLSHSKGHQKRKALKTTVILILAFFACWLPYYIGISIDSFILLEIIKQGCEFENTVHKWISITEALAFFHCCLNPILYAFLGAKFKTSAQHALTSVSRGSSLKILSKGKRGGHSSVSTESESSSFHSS

Substance | IC50 [4] [µM] | other results
ALB409-423: ALB409-423, which does not interact with CXCR4; control peptide in the asthma mouse model (VRYTKKVPQVSTPTL) [reference compound] | – | interaction with CXCR4 [1]: does not interact; CXCR4-dependent infiltration of neutrophils, lymphocytes and eosinophils into the airways [2]: no significant effects; infiltration of macrophages [2]: no significant effects
HSA precursor: highly abundant HSA precursor; the most abundant protein in human plasma, of which the SEQ ID NO 16 peptide is a fragment | – | antiretroviral effect [3]: no antiretroviral effect
LVRYTKKVPQVS [Derivative 408-419, LVRYTKKVPQVS] | 5.49 | –
LVRYTKKVPQVST [Derivative 408-420, LVRYTKKVPQVST] | 15.3 | –
LVRYTKKVPQVSTP [Derivative 408-421, LVRYTKKVPQVSTP] | 14 | –
LVRYTKKVPQVSTPT [Derivative 408-422, LVRYTKKVPQVSTPT] | 13.4 | –
